The results in this text go back to ChEMBL document CHEMBL1139967, “Design, synthesis, and SAR of macrocyclic tertiary carbinamine BACE-1 inhibitors” (Bioorg Med Chem Lett, 2007).

One series deals with T1, Renin (Homo sapiens, UniProt P00797).
T1 sequence (P00797 whole entry): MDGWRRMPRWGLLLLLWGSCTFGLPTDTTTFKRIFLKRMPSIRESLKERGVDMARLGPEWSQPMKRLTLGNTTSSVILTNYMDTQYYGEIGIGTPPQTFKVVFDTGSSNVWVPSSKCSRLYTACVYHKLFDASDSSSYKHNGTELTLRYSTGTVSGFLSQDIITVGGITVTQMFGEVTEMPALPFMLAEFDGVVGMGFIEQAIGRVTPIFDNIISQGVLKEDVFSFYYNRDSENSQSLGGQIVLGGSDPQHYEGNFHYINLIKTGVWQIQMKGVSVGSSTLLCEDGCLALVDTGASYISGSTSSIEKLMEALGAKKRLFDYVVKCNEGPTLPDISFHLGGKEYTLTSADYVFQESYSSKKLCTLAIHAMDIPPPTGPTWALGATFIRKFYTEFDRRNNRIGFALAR
Briefly: Inhibition of renin.

Another series deals with T2, Beta-secretase 2 (Homo sapiens, UniProt Q9Y5Z0).
T2 sequence (Q9Y5Z0 whole entry): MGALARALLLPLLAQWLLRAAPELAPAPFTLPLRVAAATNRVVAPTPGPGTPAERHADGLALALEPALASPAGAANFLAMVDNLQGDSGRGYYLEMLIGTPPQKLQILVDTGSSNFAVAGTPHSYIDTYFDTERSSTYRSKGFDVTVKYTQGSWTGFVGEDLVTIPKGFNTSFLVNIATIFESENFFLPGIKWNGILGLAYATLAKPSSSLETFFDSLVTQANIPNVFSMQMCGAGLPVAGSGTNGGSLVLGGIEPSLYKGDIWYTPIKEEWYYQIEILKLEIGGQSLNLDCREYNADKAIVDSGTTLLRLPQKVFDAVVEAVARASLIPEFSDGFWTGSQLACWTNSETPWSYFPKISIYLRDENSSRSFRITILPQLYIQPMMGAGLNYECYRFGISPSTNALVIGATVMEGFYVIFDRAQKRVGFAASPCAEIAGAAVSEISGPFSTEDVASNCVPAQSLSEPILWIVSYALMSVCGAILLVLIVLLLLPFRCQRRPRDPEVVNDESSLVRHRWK
The experiment in a line: Inhibition of BACE2.

Another series has as its target Cathepsin D (Homo sapiens, UniProt P07339).
The nature of a further series: in vitro. The following applies: human, LLC-PK1.
The next series concerns Brain. Briefly: Drug level in mouse brain at 30 mg/kg, ip after 2 hrs. Format: ADME, organism-based. Details: dose 30 mg/kg, route intraperitoneal. As to conditions: in vivo.

Chain of Cathepsin D (P07339 65-162 limits assumed): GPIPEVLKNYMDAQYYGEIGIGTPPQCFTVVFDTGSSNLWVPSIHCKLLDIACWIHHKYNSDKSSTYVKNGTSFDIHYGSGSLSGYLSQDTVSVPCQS
Chain of Cathepsin D (P07339 169-412 limits assumed): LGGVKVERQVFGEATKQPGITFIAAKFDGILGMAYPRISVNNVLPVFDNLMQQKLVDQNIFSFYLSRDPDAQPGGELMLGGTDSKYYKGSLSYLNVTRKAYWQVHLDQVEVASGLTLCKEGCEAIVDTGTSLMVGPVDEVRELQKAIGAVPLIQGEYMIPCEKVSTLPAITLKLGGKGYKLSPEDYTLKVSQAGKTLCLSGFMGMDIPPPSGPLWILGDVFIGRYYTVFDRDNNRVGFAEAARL
Description for Cathepsin D: Inhibition of cathepsin D
Description for in vitro: Apparent permeability across L-MDR1 cells

In the case of `CCCN(c1cc2cc(c1)C(=O)N[C@@H](c1ccccc1)CCc1cccc(c1)C[C@@](C)(N)COC2)S(C)(=O)=O`, the IC50 at Renin was found to be 144 µM; at Beta-secretase 2 it was 1.6 µM; against Cathepsin D it was 275 µM.
`CN(c1cc2cc(c1)C(=O)N[C@@H](c1ccccc1)CCc1cccc(c1)C[C@@](C)(N)C(=O)OC2)S(=O)(=O)C(F)(F)F` showed a Papp in the series “in vitro” of 13 ×10⁻⁶ cm/s.
Compound `C[C@@]1(N)Cc2cccc(c2)CC[C@H](c2ccccc2)NC(=O)c2cc(Br)cc(c2)COC1=O` returned a Papp in “in vitro” of 9 ×10⁻⁶ cm/s. This Papp and that of the compound before are within 1.5-fold of each other.
Compound `C[C@@]1(N)Cc2ccc(F)c(c2)CC[C@H](c2ccc(F)cc2)NC(=O)c2cc(cc(-c3ccccc3C#N)c2)COC1=O` showed a Papp in “in vitro” of 9 ×10⁻⁶ cm/s.
Still for that read-out and setting: the value for `C[C@@]1(N)Cc2cccc(c2)CC[C@H](c2ccc(F)cc2)NC(=O)c2cc(cc(-c3cccc(F)c3C#N)c2)COC1=O` was 7 ×10⁻⁶ cm/s.
For `C[C@@]1(N)Cc2ccc(F)c(c2)CC[C@H](c2ccc(F)cc2)NC(=O)c2cc(cc(-c3cccc(F)c3C#N)c2)COC1=O`, in the series “in vitro”, the Papp stood at 6 ×10⁻⁶ cm/s.
As for `CN(c1cc2cc(c1)C(=O)N[C@@H](c1ccccc1)CCc1cccc(c1)C[C@@](C)(N)C(=O)OC2)S(C)(=O)=O`, in the series “in vitro”, the Papp came out at 9 ×10⁻⁶ cm/s.
Take `CCCN(c1cc2cc(c1)C(=O)N[C@@H](c1ccccc1)CCc1cccc(c1)C[C@@](C)(N)C(=O)OC2)S(C)(=O)=O`: the figures for the IC50 at Renin, on Beta-secretase 2 and against Cathepsin D were 169 µM, 54 µM and 97 µM, respectively.
`C[C@@]1(N)Cc2cccc(c2)CC[C@H](c2ccccc2)NC(=O)c2cc(cc(-c3ccccc3C#N)c2)COC1=O` gave an Activity in the series with Brain of 16%. Also, the concentration for half-maximal inhibition (IC50) at Renin turned out to be 275 µM; against Beta-secretase 2, 41 µM; against Cathepsin D, 48 µM. In the series “in vitro”, this compound registered a Papp of 9 ×10⁻⁶ cm/s.
`C[C@@]1(N)Cc2cccc(c2F)CC[C@H](c2ccc(F)cc2)NC(=O)c2cc(cc(-c3ccccc3C#N)c2)COC1=O`: the Papp in “in vitro” came out at 6 ×10⁻⁶ cm/s.
Turning to `CN(c1cc2cc(c1)C(=O)N[C@@H](c1ccccc1)CCc1cccc(c1)C[C@@](C)(N)C(=O)OC2)S(=O)(=O)CC(F)(F)F`, the Papp in “in vitro” worked out at 12 ×10⁻⁶ cm/s.
Take `CN(C)S(=O)(=O)N(C)c1cc2cc(c1)C(=O)N[C@@H](c1ccccc1)CCc1cccc(c1)C[C@@](C)(N)C(=O)OC2`: the Papp in the series “in vitro” turned out to be 15 ×10⁻⁶ cm/s. This Papp and that of the compound before are within 1.5-fold of each other.
